Entries after “also recorded” stand apart in the source; their conditions may differ.
Legend:
HDAC2 = HDAC2 (Homo sapiens, UniProt Q92769); assay: HDAC selectivity panel: HDAC2; assay type: biochemical
HDAC7 = biological target: T1, HDAC7 (Homo sapiens, UniProt Q8WUI4); assay: HDAC selectivity panel: HDAC7; assay type: biochemical
T1 sequence (Q8WUI4 1-952): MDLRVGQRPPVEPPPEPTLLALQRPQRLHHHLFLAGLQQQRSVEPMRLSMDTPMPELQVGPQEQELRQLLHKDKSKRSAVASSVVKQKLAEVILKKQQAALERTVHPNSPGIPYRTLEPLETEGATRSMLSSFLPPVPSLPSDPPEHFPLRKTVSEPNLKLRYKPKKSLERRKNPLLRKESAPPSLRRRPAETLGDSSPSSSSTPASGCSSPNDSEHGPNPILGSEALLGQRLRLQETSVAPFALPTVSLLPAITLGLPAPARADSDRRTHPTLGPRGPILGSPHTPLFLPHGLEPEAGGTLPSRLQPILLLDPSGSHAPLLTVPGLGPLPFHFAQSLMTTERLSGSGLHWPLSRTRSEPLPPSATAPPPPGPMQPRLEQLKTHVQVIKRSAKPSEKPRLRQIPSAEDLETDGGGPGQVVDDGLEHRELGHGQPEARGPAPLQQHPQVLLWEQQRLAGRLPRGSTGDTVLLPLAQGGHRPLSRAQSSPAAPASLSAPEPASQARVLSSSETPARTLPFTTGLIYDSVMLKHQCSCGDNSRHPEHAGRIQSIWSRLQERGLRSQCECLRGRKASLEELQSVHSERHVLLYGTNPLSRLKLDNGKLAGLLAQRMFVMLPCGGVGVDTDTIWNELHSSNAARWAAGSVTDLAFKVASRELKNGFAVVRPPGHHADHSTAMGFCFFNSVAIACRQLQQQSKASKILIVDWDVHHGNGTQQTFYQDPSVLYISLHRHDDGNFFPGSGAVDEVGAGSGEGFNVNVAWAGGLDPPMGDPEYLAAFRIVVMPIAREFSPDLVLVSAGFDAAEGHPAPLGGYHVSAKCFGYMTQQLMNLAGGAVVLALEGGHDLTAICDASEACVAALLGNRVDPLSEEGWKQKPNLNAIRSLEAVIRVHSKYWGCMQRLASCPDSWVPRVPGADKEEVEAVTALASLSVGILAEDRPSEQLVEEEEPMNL

HDAC8 = biological target: T2, HDAC8 (Homo sapiens, UniProt Q9BY41); assay: HDAC selectivity panel: HDAC8; assay type: biochemical
T2 sequence (Q9BY41 1-377): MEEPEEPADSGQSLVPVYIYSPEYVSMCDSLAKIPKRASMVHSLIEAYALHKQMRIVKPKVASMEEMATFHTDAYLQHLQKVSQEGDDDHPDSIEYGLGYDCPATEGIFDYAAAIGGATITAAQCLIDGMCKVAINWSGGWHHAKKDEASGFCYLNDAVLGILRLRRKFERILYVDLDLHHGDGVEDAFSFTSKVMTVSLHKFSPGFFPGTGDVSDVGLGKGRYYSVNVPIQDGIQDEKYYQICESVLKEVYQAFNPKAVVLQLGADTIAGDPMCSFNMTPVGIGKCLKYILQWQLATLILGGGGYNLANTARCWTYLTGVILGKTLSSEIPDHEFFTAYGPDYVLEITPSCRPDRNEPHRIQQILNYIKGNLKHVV

[1] = system: acetyl-α-tubulin in SH-SY5Y neuroblastoma cells; assay: Western blot of acetylated alpha-tubulin in SH-SY5Y neuroblastoma cells; assay type: cell-based; settings: 1 μM and 10 μM, 24 hours
Method: SH-SY5Y neuroblastoma cells were seeded at 1,000,000 cells/well of three 6-well plates and incubated for 24 hours. Cells were treated with 2 control and experimental HDAC6 inhibitors at 1 μM and 10 μM for 24-hours. Following treatment, cells were lysed, and proteins extracted for western blot. Proteins were separated by gel electrophoresis and transferred to nitrocellulose membranes. Membranes were blocked and probed with primary Abs overnight.
acetyl-α-tubulin (Lys40)(D20G3); Cell Signaling Technologies, #5335S
GAPDH; Millipore Sigma, #MAB374
Membranes were probed with secondary Abs for 1 hour and then the blots were imaged using the iBright 1500 (ThermoFisher)

[2] = system: B6SJL.SOD1-G93A transgenic mouse model of amyotrophic lateral sclerosis; assay: Pre-clinical ALS mouse model efficacy: motor behavior; assay type: in vivo, mice; settings: both doses (G3 and G4), week 10 until week 16
Method: Effect of test compound I-8 in Cyagen, male B6SJL.SOD1-G93A 9-week-old transgenic mouse model of amyotrophic lateral sclerosis
Compound I-8 effect was evaluated in Cyagen, Male B6SJL.SOD1-G93A 9-week-old mice, an animal model of amyotrophic lateral sclerosis.

Tg2576 AD Disease Mice [3] = assay: Tg2576 study: Y-maze test; assay type: in vivo; settings: for # of Spontaneous Alterations (Y-Maze) / % Spontaneous Alterations (Y-Maze): G3 Tg2576 mice
Method: (§1) Mice were weighed and randomized into groups. All the test formulations were freshly administered to respective animals of each group as per body weight. Basal behavior of the animals was recorded and analyzed in open field, Y-Maze, and EPM. Post basal behavior, animals were treated with compound I-16 for the duration of 3 months (i.e., from 6 months until 9 months). During the treatment duration, animals were subjected to different behavioral tests such as OFT, Y-maze, and EPM at 7, 8 and 9 months. At the end of experiments (i.e., at 9 months) animals were subjected to Morris water maze test.
To test spatial working memory, animals were subjected to spontaneous alteration test in Y-maze (Arm length—57 cm). During the test, the animal was placed at the end of one arm and allowed to explore the arena for a duration of 10 minutes. During the testing session, the number of entries in each arm were recorded and % alterations were calculated.
% Spontaneous alteration=(Spontaneous alteration/Total Arm entries−2)×100

Tg2576 AD Disease Mice [4] = assay: Tg2576 study: open field test; assay type: in vivo; settings: for Open Field Test time spent in Central zone / Open Field Test time spent in Peripheral zone: G3 Tg2576 mice
Method: as §1
Prior to the treatment initiation at […], animals were subjected to open field test. […] The total distance travelled, and velocity were quantified using an automated video tracking software Ethovision XT for the duration of 10 minutes. A camera, located directly above the centre of the open field, records the session. Locomotor activities were expressed as the total distance travelled and velocity.

[5] = G3 Tg2576 AD disease mice, 50 mg/kg
[6] = 50 mg/kg then 80 mg/kg from day 36 p.o., 8th months
[7] = 50 mg/kg then 80 mg/kg from day 36 p.o., 9th months
[8] = 6th months (Basal, before treatment)

Chain of HDAC2 (Q92769 whole entry, species assumed): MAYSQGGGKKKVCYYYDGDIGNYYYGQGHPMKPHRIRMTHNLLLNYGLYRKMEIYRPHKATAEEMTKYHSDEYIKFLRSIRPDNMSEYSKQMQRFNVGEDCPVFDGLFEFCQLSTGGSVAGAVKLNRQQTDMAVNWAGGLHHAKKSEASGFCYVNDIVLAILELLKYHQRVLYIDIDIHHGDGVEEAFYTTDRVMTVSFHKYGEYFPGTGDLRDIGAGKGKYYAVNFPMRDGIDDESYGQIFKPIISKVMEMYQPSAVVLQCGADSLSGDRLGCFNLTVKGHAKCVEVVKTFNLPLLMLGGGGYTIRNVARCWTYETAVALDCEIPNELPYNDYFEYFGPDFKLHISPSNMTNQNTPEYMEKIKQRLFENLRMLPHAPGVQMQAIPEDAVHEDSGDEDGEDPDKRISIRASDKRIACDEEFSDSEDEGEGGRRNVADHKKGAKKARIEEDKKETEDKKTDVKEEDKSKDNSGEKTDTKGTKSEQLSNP

CC1CN(Cc2ccc(Nc3nccc(-c4ccc(C(=O)NO)cc4)n3)cc2F)CCO1 (racemic) [Compound I-8, 4-(2-((3-fluoro-4-((2-methylmorpholino)methyl)phenyl)amino)pyrimidin-4-yl)-N-hydroxybenzamide]
IC50 (HDAC2): 2.8 µM
IC50 (HDAC7): 12.4 µM
IC50 (HDAC8): 0.102 µM
acetylation of α-tubulin (Western blot) [1]: induce acetylation of α-tubulin in SH-SY5Y neuroblastoma cells in a dose-dependent manner; also recorded: induces acetylation α-tubulin
motor behavior compared to disease control group [2]: Improvement was observed in motor behavior

C[C@@H]1CN(Cc2ccc(Nc3nccc(-c4ccc(C(=O)NO)cc4)n3)cc2F)CCO1 [Compound I-16, (R)-4-(2-((3-fluoro-4-((2-methylmorpholino)methyl)phenyl)amino)pyrimidin-4-yl)-N-hydroxybenzamide]
Y Maze: number of spontaneous alterations compared to G2 (Tg2576 + vehicle) (Tg2576 AD Disease Mice [3]; [5]): did not show any significant difference
# of Spontaneous Alterations (Y-Maze) (Tg2576 AD Disease Mice [3]; 50 mg/kg p.o., 7th months): 18.70 ± 6.96
% Spontaneous Alterations (Y-Maze) (Tg2576 AD Disease Mice [3]; 50 mg/kg p.o., 7th months): 57.59 ± 3.85%
# of Spontaneous Alterations (Y-Maze) (Tg2576 AD Disease Mice [3]; [6]): 16.00 ± 2.59
% Spontaneous Alterations (Y-Maze) (Tg2576 AD Disease Mice [3]; [6]): 41.65 ± 5.52%
# of Spontaneous Alterations (Y-Maze) (Tg2576 AD Disease Mice [3]; [7]): 16.00 ± 2.48
% Spontaneous Alterations (Y-Maze) (Tg2576 AD Disease Mice [3]; [7]): 43.66 ± 4.55%
# of Spontaneous Alterations (Y-Maze) (Tg2576 AD Disease Mice [3]; [8]): 25.00 ± 5.19
% Spontaneous Alterations (Y-Maze) (Tg2576 AD Disease Mice [3]; [8]): 53.60 ± 3.25%
Open Field Test: total distance, velocity, time spent in central and peripheral zone compared to G2 (Tg2576 + vehicle) (Tg2576 AD Disease Mice [4]; [5]): did not show any significant difference
Open Field Test time spent in Central zone (Tg2576 AD Disease Mice [4]; 50 mg/kg p.o., 7th months): 25.12 ± 12.39
Open Field Test time spent in Peripheral zone (Tg2576 AD Disease Mice [4]; 50 mg/kg p.o., 7th months): 574.88 ± 12.39
Open Field Test time spent in Central zone (Tg2576 AD Disease Mice [4]; [6]): 79.09 ± 28.86
Open Field Test time spent in Peripheral zone (Tg2576 AD Disease Mice [4]; [6]): 520.91 ± 28.86
Open Field Test time spent in Central zone (Tg2576 AD Disease Mice [4]; [7]): 61.69 ± 12.36
Open Field Test time spent in Peripheral zone (Tg2576 AD Disease Mice [4]; [7]): 538.31 ± 12.36
Open Field Test time spent in Central zone (Tg2576 AD Disease Mice [4]; [8]): 57.11 ± 12.95
Open Field Test time spent in Peripheral zone (Tg2576 AD Disease Mice [4]; [8]): 537.81 ± 12.63
